Test [1] deals with Signal transducer and activator of transcription 1-alpha/beta (Homo sapiens, UniProt P42224). Briefly: STAT3 inhibitors, late-stage profile, late-stage follow-up, cell-based, STAT1 panel, qPCR, cytotoxicity, panel member STAT1 Inhibition (AID 2078). In general terms: Quantitative PCR measures a nucleic acid by following its amplification.
The target in test [2] is Signal transducer and activator of transcription 3 (Homo sapiens, UniProt P40763). Briefly: STAT3 inhibitors, late-stage profile, late-stage follow-up, cell-based, STAT1 panel, qPCR, cytotoxicity, panel member STAT3 Inhibition (AID 2078).
For test [3], the target named is T1, Cannabinoid receptor 2 (Homo sapiens, UniProt P34972). Briefly: SAR analysis of agonists of the Cannabinoid Receptor 2 using an Image-Based Assay - Set 3. [Related pubchem assays (depositor defined):AID2013, AID2026]. In kind it is functional.
The target of test [4] is T1, Cannabinoid receptor 2. Put plainly: SAR analysis of antagonists of the Cannabinoid Receptor 2 using an Image-Based Assay - Set 3. [Related pubchem assays (depositor defined):AID2013, AID2026]. In kind it is functional.
Test [5] has as its target T2, Cannabinoid receptor 1 (Homo sapiens, UniProt P21554). Briefly: SAR analysis of antagonists of the Cannabinoid Receptor 1 using an Image-Based Assay - Set 4. [Related pubchem assays (depositor defined):AID2013, AID2026]. In kind it is functional.
Test [6] has as its target T3, G-protein coupled receptor 35 (Homo sapiens, UniProt Q9HC97). Briefly: SAR analysis of Agonists of the GPR35 Receptor using an Image-Based Assay - Set 4. [Related pubchem assays (depositor defined):AID2013, AID2026]. It is filed as functional.
Test [7] concerns the target T2, Cannabinoid receptor 1. Briefly: SAR analysis of agonists of the Cannabinoid Receptor 1 using an Image-Based Assay - Set 4. [Related pubchem assays (depositor defined):AID2013, AID2026]. In kind it is functional.
Test [8] addresses G-protein coupled receptor 55 (Homo sapiens, UniProt Q9Y2T6). Briefly: SAR Analysis of Selective Antagonists of GPR55 using an Image-Based Assay - Set 4. [Related pubchem assays (depositor defined):AID2013, AID2026]. It is filed as functional.
Test [9] addresses T3, G-protein coupled receptor 35. Put plainly: SAR analysis of Antagonists of the GPR35 Receptor using an Image-Based Assay - Set 6. [Related pubchem assays (depositor defined):AID2013, AID2026]. In kind it is functional.
Test [10] addresses Kappa-type opioid receptor (Homo sapiens, UniProt P41145). Put plainly: SAR analysis of small molecule agonists of the kappa opioid receptor via a luminescent beta-arrestin assay - Set 3. [Related pubchem assays (depositor defined):AID1777, AID1785, AID1786, AID1966, AID2133, AID2136, AID2284, AID2500]. It is filed as functional.
For test [11], the target named is T4, Tyrosine-protein phosphatase non-receptor type 22 (Homo sapiens, UniProt Q9Y2R2).
T4 sequence (Q9Y2R2 whole entry): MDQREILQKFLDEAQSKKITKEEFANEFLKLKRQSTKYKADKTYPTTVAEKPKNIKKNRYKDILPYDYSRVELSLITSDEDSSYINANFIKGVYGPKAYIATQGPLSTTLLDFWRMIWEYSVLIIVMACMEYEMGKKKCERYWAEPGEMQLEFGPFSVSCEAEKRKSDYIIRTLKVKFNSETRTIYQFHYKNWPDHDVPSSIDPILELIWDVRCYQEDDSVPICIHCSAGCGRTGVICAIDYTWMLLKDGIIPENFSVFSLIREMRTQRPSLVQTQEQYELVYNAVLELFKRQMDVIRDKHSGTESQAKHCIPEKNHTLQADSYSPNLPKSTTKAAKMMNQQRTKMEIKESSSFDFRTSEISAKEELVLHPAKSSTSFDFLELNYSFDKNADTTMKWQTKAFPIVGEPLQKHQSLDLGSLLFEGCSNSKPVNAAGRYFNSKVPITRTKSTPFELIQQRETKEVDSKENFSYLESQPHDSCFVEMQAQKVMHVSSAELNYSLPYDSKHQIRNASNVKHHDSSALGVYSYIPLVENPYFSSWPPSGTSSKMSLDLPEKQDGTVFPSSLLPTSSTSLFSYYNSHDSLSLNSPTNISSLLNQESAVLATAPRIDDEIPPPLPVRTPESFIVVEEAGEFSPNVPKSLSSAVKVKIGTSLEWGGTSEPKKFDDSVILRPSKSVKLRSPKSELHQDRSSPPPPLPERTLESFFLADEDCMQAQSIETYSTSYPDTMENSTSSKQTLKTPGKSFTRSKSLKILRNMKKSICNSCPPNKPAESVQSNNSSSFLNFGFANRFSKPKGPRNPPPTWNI
Briefly: SAR LYP1 Fluorescent Assay using OMFP substrate for In Vitro dose response studies - Set 2. [Related pubchem assays (depositor defined):AID1779, AID1784, AID2140, AID449726, AID488869]. It is filed as functional.

For test [12], the target named is T4, Tyrosine-protein phosphatase non-receptor type 22. Put plainly: PubChem AID 2135.
For test [13] the target is unchanged. Put plainly: PubChem AID 2140.
The target of test [14] is T5, Tyrosine-protein phosphatase non-receptor type 7 (Homo sapiens, UniProt P35236).
T5 sequence (P35236 whole entry): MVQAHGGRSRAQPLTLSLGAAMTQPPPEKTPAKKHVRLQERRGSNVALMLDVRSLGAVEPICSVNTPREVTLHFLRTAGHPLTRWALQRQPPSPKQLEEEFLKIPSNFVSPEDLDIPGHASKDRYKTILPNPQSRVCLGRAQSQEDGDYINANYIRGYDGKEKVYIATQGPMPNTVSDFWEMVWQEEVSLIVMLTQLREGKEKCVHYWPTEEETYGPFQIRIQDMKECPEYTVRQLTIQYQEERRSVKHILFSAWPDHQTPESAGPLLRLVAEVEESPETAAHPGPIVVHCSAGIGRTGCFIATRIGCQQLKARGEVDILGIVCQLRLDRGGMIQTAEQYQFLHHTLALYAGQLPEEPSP
Briefly: HePTP (PTPN7) phosphatase inhibitor potency, SAR follow-up, biochemical, set 2 (AID 449736). In kind it is functional.

The target of test [15] is T4, Tyrosine-protein phosphatase non-receptor type 22. Briefly: SAR LYP1 Fluorescent Assay using pCAP substrate for In Vitro dose response studies - Set 2. [Related pubchem assays (depositor defined):AID1779, AID1784, AID2135, AID449727]. It is filed as functional.
In test [16] the target is Tyrosine-protein phosphatase non-receptor type 12 (Homo sapiens, UniProt Q05209). Put plainly: SAR Selectivity Analysis of small molecule inhibitors of PEST using pCAP in a fluorescence assay. [Related pubchem assays (depositor defined):AID1779, AID1784, AID2135]. It is filed as functional.
The target in test [17] is T4, Tyrosine-protein phosphatase non-receptor type 22. Briefly: LYP (PTPN22) phosphatase inhibitor potency, SAR follow-up, biochemical, pCAP fluorogenic substrate, fluorescence, set 3 (AID 449727). In kind it is functional.
Test [18] shares this target. Put plainly: SAR LYP1 Fluorescent Assay using OMFP substrate for In Vitro dose response studies - Set 3. [Related pubchem assays (depositor defined):AID1779, AID1784, AID2140, AID2686]. In kind it is functional.

Structures are written as SMILES. Active and inactive are the calls of the source.

T1 sequence (P34972 whole entry): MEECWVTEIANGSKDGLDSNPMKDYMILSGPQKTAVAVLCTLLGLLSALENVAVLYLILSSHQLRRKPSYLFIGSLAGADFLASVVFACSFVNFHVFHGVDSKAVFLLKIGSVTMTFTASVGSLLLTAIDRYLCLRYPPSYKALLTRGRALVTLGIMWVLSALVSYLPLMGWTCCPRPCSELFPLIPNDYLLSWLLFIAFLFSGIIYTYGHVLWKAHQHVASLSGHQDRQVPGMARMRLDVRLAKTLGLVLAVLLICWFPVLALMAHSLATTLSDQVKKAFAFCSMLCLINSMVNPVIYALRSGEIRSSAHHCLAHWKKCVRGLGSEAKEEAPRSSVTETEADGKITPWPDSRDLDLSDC
T3 sequence (Q9HC97 whole entry): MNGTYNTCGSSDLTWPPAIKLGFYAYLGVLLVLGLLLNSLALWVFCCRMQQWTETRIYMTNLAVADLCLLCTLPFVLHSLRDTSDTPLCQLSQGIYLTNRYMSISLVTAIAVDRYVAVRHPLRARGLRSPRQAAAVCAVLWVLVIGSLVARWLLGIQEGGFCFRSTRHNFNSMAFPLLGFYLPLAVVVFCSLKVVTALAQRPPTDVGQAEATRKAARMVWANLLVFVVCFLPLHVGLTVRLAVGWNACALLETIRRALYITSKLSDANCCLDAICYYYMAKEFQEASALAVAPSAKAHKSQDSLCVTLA
T2 sequence (P21554 whole entry): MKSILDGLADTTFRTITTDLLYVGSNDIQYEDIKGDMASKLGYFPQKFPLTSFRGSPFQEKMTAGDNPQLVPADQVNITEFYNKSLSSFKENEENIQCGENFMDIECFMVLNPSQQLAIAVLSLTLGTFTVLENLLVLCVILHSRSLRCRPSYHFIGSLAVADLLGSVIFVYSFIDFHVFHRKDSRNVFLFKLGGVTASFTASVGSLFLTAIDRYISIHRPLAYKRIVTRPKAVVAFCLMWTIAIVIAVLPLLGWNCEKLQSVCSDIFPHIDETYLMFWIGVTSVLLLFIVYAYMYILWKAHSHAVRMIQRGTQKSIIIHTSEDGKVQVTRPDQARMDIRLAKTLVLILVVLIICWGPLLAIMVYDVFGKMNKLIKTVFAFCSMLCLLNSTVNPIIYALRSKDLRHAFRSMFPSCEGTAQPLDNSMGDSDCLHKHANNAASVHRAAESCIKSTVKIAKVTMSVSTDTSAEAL
Chain of Kappa-type opioid receptor (P41145 whole entry): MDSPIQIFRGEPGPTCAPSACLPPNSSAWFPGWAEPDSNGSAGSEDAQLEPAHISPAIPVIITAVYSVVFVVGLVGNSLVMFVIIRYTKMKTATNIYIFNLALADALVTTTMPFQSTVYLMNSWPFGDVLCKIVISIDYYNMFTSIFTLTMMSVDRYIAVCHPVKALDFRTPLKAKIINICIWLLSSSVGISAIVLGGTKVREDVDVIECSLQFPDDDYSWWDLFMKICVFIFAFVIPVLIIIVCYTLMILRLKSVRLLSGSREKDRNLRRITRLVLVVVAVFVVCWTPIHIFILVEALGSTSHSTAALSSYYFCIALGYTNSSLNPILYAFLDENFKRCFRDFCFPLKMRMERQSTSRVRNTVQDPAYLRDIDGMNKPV
Chain of Signal transducer and activator of transcription 3 (P40763 whole entry): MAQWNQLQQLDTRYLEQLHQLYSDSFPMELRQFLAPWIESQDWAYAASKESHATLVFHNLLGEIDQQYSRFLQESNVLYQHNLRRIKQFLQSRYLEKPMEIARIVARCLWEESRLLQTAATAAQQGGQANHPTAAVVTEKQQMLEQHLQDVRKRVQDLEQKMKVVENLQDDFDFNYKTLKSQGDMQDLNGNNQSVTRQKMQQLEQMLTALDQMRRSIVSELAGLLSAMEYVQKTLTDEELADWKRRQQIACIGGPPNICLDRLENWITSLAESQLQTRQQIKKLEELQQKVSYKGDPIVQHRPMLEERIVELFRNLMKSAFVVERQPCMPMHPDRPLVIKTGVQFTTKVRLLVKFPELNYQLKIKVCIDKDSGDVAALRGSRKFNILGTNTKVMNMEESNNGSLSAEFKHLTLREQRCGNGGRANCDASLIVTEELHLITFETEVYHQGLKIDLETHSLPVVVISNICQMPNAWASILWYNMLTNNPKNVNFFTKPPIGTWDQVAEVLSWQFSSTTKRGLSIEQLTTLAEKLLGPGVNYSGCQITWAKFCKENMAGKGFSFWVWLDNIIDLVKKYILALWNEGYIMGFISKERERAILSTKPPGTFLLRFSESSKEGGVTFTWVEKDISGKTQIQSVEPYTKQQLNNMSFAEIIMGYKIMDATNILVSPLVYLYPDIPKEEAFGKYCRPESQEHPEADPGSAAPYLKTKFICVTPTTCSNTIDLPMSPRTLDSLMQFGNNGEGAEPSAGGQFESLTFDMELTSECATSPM
Chain of G-protein coupled receptor 55 (Q9Y2T6 whole entry): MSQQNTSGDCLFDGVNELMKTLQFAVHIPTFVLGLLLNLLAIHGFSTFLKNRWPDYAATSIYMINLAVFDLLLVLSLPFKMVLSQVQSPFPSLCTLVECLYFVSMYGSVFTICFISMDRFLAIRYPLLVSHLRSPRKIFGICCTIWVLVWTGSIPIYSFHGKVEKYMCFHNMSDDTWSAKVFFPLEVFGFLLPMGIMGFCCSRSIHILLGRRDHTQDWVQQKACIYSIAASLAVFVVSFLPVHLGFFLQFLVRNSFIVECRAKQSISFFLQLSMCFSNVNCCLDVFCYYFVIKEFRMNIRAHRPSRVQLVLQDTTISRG
Chain of Signal transducer and activator of transcription 1-alpha/beta (P42224 whole entry): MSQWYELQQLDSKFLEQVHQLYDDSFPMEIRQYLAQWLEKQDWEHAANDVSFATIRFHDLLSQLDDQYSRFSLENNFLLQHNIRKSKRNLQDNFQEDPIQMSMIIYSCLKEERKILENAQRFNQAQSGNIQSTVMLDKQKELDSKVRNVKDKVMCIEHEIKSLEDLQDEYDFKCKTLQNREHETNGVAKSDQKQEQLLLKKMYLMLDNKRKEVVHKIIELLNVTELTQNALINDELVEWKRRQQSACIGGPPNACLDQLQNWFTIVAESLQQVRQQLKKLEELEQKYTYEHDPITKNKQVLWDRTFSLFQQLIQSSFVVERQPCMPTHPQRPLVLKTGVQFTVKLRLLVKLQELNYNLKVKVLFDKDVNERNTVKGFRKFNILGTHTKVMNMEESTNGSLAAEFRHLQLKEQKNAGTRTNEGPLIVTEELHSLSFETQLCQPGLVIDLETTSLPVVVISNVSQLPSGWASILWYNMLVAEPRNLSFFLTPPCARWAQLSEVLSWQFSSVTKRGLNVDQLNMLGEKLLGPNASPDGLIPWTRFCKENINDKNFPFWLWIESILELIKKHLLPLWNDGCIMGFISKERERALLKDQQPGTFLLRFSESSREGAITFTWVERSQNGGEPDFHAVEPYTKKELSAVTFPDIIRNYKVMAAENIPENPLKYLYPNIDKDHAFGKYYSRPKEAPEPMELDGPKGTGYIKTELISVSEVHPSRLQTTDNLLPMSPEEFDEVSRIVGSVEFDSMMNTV
Chain of Tyrosine-protein phosphatase non-receptor type 12 (Q05209 whole entry): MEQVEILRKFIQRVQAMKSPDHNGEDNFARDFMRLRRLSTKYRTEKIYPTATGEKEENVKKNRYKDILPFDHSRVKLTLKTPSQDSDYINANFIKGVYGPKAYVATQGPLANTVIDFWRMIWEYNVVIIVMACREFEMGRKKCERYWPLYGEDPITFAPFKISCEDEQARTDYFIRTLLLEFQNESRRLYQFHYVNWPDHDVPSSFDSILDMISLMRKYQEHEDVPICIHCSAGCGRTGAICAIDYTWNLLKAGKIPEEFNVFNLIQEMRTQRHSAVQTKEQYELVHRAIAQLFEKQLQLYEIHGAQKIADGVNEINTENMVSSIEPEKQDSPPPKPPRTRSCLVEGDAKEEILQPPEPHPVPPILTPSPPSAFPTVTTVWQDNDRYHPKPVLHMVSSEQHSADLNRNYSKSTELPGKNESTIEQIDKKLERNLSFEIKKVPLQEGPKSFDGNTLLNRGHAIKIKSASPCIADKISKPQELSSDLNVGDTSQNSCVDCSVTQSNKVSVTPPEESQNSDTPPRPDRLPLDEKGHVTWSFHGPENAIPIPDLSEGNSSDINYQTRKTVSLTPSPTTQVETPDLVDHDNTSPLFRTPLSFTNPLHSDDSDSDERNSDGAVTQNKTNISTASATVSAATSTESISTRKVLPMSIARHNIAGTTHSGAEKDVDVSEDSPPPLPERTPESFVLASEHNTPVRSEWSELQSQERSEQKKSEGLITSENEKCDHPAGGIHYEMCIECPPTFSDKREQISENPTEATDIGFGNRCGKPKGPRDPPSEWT

For orientation: IC50 means the concentration at which inhibition is half-maximal. On to `O=C(c1ccc(Cl)cc1)C1CCN(c2ncnc3sccc23)CC1`, for which the IC50 in test [1] is > 55.7 µM (inactive); in [2], 0.837 µM (active).
By EC50 is commonly meant the concentration needed to bring the measured effect to its halfway point. In the case of `O=C(Cc1ccc2c(c1)OCO2)N1CCC(n2nc(-c3ccccc3)oc2=O)CC1`, the EC50 (on Cannabinoid receptor 2 [3]; in test [6]; on Cannabinoid receptor 1 [7]) was > 32 µM (inactive) throughout. Moreover, the IC50 at Cannabinoid receptor 2 [4] was > 32 µM (inactive); on Cannabinoid receptor 1 [5] it was 15.8 µM (inactive); in [8], > 32 µM (inactive); in test [9] it was > 32 µM (inactive).
Take `Clc1ccccc1Cn1c(SCc2ccccc2)nnc1-c1ccccn1`: in test [10], the EC50 is > 20 µM (inactive).
With `COC(=O)c1ccc(COc2ccc3cc(-c4ccc(F)cc4)c(=O)oc3c2)cc1`, the IC50 was > 100 µM (inactive) in test [11]; > 100 µM (inactive) in test [12]; > 100 µM (inactive) in [13]; 40 µM (active) in [14]; > 100 µM (inactive) in test [15]; > 100 µM (inactive) in test [16]. Further, the IC50 in test [17] and in test [18] was > 100 µM (inactive) in each case.

The record behind these values is ChEMBL document CHEMBL1201862, “PubChem BioAssay data set” (2004).
